Converted amounts (≈) assume the structure as drawn. The source made the active and inactive calls. No cut-off for these calls is given here.
Tests used:
Type in all cases: functional
Aspergillus niger [1] = experiment: Antifungal activity against Aspergillus niger F-1119 at 0.1% after 48 to 72 hrs by agar disk diffusion technique
Yamadazyma tenuis [2] = experiment: Antifungal activity against Candida tenuis VKM Y-70 at 0.1% after 48 to 72 hrs by agar disk diffusion technique
Mycobacterium [3] = experiment: Antibacterial activity against Mycobacterium luteum B-917 at 0.1% after 24 hrs by agar disk diffusion technique
Staphylococcus aureus [4] = experiment: Antibacterial activity against Staphylococcus aureus 209-P at 0.1% after 24 hrs by agar disk diffusion technique
Escherichia coli [5] = experiment: Antibacterial activity against Escherichia coli B-906 at 0.1% after 24 hrs by agar disk diffusion technique
Aspergillus niger [6] = experiment: Antifungal activity against Aspergillus niger F-1119 after 24 to 72 hrs by serial dilution technique
Yamadazyma tenuis [7] = experiment: Antifungal activity against Candida tenuis VKM Y-70 after 24 to 72 hrs by serial dilution technique
Mycobacterium [8] = experiment: Antibacterial activity against Mycobacterium luteum B-917 after 24 to 72 hrs by serial dilution technique
Staphylococcus aureus [9] = experiment: Antibacterial activity against Staphylococcus aureus 209-P after 24 to 72 hrs by serial dilution technique
Escherichia coli [10] = experiment: Antibacterial activity against Escherichia coli B-906 after 24 to 72 hrs by serial dilution technique
Aspergillus niger [11] = experiment: Antifungal activity against Aspergillus niger F-1119 at 0.5% after 48 to 72 hrs by agar disk diffusion technique
Yamadazyma tenuis [12] = experiment: Antifungal activity against Candida tenuis VKM Y-70 at 0.5% after 48 to 72 hrs by agar disk diffusion technique
Mycobacterium [13] = experiment: Antibacterial activity against Mycobacterium luteum B-917 at 0.5% after 24 hrs by agar disk diffusion technique
Staphylococcus aureus [14] = experiment: Antibacterial activity against Staphylococcus aureus 209-P at 0.5% after 24 hrs by agar disk diffusion technique
Escherichia coli [15] = experiment: Antibacterial activity against Escherichia coli B-906 at 0.5% after 24 hrs by agar disk diffusion technique

Molecule	diameter of the inhibition zone (DIZ) (Aspergillus niger [1])	diameter of the inhibition zone (DIZ) (Yamadazyma tenuis [2])	diameter of the inhibition zone (DIZ) (Mycobacterium [3])	diameter of the inhibition zone (DIZ) (Staphylococcus aureus [4])	diameter of the inhibition zone (DIZ) (Escherichia coli [5])	MIC (Aspergillus niger [6])	MIC (Yamadazyma tenuis [7])	MIC (Mycobacterium [8])	MIC (Staphylococcus aureus [9])	MIC (Escherichia coli [10])	diameter of the inhibition zone (DIZ) (Aspergillus niger [11])	diameter of the inhibition zone (DIZ) (Yamadazyma tenuis [12])	diameter of the inhibition zone (DIZ) (Mycobacterium [13])	diameter of the inhibition zone (DIZ) (Staphylococcus aureus [14])	diameter of the inhibition zone (DIZ) (Escherichia coli [15])	inhibition zone (IZ) (Yamadazyma tenuis [2])
CC1CCC(C(C)(C)SC2=C(SC(C)(C)C3CCC(C)CC3=O)C(=O)c3ccccc3C2=O)C(=O)C1 (centres undefined)	0 mm	0 mm	0 mm	0 mm	0 mm	500 µg/mL (≈ 949 µM)	inactive	500 µg/mL (≈ 949 µM)	inactive	inactive	6 mm	7.4 mm	0 mm	0 mm	0 mm	
NYSTATIN																19 mm
CCCCOC(=O)CCSC1=C(SCCC(=O)OCCCC)C(=O)c2ccccc2C1=O	0 mm	0 mm	0 mm	0 mm	0 mm	inactive	inactive	inactive	inactive	inactive	6 mm	0 mm	0 mm	0 mm	0 mm	
CCCCOC(=O)CCSC1=C(N2CCC3(CC2)OCCO3)C(=O)c2ccccc2C1=O	7 mm	0 mm	0 mm	0 mm	0 mm	62.5 µg/mL (≈ 136 µM)	inactive	125 µg/mL (≈ 272 µM)	inactive	inactive	9 mm	0 mm	0 mm	0 mm	0 mm	
O=C1C(Cl)=C(N2CCN(c3ccc([N+](=O)[O-])cc3)CC2)C(=O)c2ccccc21	0 mm	8.5 mm	0 mm	0 mm	0 mm	31.2 µg/mL (≈ 78.4 µM)	31.2 µg/mL (≈ 78.4 µM)	inactive	inactive	inactive	13.7 mm	15.7 mm	0 mm	0 mm	0 mm	
CCCCOC(=O)CCSC1=C(Sc2c(Cl)c(Cl)c(Cl)c(Cl)c2Cl)C(=O)c2ccccc2C1=O	0 mm	0 mm	0 mm	0 mm	0 mm	inactive	inactive	125 µg/mL (≈ 209 µM)	inactive	inactive	6 mm	0 mm	0 mm	0 mm	0 mm	
CCOC1=C(N(CC)Cc2ccncc2)C(=O)c2ccccc2C1=O	8 mm	12.4 mm	0 mm	0 mm	0 mm	31.2 µg/mL (≈ 92.7 µM)	62.5 µg/mL (≈ 186 µM)	125 µg/mL (≈ 372 µM)	62.5 µg/mL (≈ 186 µM)	inactive	19 mm	20 mm	7.4 mm	0 mm	0 mm	
COC(=O)CCSC1=C(N2CCC3(CC2)OCCO3)C(=O)c2ccccc2C1=O	0 mm	0 mm	0 mm	0 mm	0 mm	500 µg/mL (≈ 1200 µM)	inactive	250 µg/mL (≈ 599 µM)	inactive	inactive	8.4 mm	0 mm	12.6 mm	0 mm	0 mm	
O=C1C(Sc2c(Cl)c(Cl)c(Cl)c(Cl)c2Cl)=C(N2CCOCC2)C(=O)c2ccccc21	0 mm	0 mm	0 mm	0 mm	0 mm	inactive	inactive	inactive	inactive	inactive	0 mm	0 mm	0 mm	0 mm	0 mm	
O=C1C(Sc2c(Cl)c(Cl)c(Cl)c(Cl)c2Cl)=C(N2CCN(c3ccc(F)cc3)CC2)C(=O)c2ccccc21	0 mm	0 mm	0 mm	0 mm	0 mm	inactive	inactive	125 µg/mL (≈ 203 µM)	inactive	inactive	0 mm	0 mm	0 mm	0 mm	0 mm	
O=C1C(Sc2c(Cl)c(Cl)c(Cl)c(Cl)c2Cl)=C(N2CCCC2)C(=O)c2ccccc21	0 mm	0 mm	0 mm	0 mm	0 mm	inactive	inactive	inactive	inactive	inactive	0 mm	0 mm	0 mm	0 mm	0 mm	
CN[C@H](CC(C)C)C(=O)N[C@H]1C(=O)N[C@@H](CC(N)=O)C(=O)N[C@H]2C(=O)N[C@H]3C(=O)N[C@H](C(=O)N[C@H](C(=O)O)c4cc(O)cc(O)c4-c4cc3ccc4O)[C@H](O)c3ccc(c(Cl)c3)Oc3cc2cc(c3O[C@@H]2O[C@H](CO)[C@@H](O)[C@H](O)[C@H]2O[C@H]2C[C@](C)(N)[C@H](O)[C@H](C)O2)Oc2ccc(cc2Cl)[C@H]1O [VANCOMYCIN]			18 mm	15 mm	14 mm											

— ChEMBL document CHEMBL2424637, “Nucleophilic substitution reactions of 1,4-naphthoquinone and biologic properties of novel S-, S,S-, N-, and N,S-substituted 1,4-naphthoquinone derivatives” (2013)
